Values quoted from earlier work as cited in patent US10052384B2, “Liquid antiseptic compositions containing iodine and a sugar and/or sugar alcohol” (3M INNOVATIVE PROPERTIES COMPANY, priority 2007, dated 2018).

Details: 25° C.

In the case of `II` [elemental iodine], the Solubility in water is given as 0.03 wt-%.
